Source: patent US12186354B2, “Lespedeza capitata extract for use in the field of hair care” (priority 2018, dated 2025)

How the values were obtained:
[1] = tested on: 5α-reductase; assay: 5α-reductase activity (DHT/testosterone ratio) in dermal papilla cells, C14 testosterone metabolism; type: cell-based, human; conditions: 10 μM, incubation 24 h+24 h
[2] = tested on: JAK1/2-STAT3 pathway; assay: IL-6-induced STAT3 phosphorylation in follicular keratinocytes of the outer root sheath (ORS); type: cell-based, human; conditions: 5 μM, 1 h pre-treatment, IL-6 100 ng/ml 15 minutes

## CC(C)(C)NC(=O)[C@H]1CC[C@H]2[C@@H]3CC[C@H]4NC(=O)C=C[C@]4(C)[C@H]3CC[C@]12C [Finasteride, finasteride]
[1]
  % inh (DHT/testosterone ratio, relative to the control condition): 94.2%
  Mean DHT/testosterone ratio (5α-reductase activity): 0.02

## N#CC[C@H](C1CCCC1)n1cc(-c2ncnc3[nH]ccc23)cn1 [Ruxolitinib, ruxolitinib]
[2]
  % of STAT phosphorylated, Mean: 102%
